In data set [1] the test system is anesthetized dogs. The data set can be described thus: Mean arterial pressure (MAP) in anesthetized dogs. It is filed as in vivo, dog. To be noted: iv dose causing a maximum increase in MAP of 20 mm Hg, anesthetized female Beagle dogs. The source says: (§1) Female Beagle dogs (Marshall Farms, North Rose, N.Y.) greater that 2 years of age and weighing between 12 and 15 kg were used in these studies. At least 2 weeks prior to any agonist dosing, dogs were instrumented for the chronic measurement of arterial blood pressure by implanting a telemetry transducer/transmitter (TA11PA-C40, Data Sciences International, St. Paul, Minn.) into a carotid artery.
(§2) On the test day, dogs fasted since the previous afternoon were pre-anesthetized with thiopental sodium 15 mg/kg i.v. (Pentothal™, Abbott) and intubated. Anesthesia was maintained by allowing the dog to spontaneously breathe a mixture of isoflurane (2.5 to 3 volume %) and oxygen delivered by a Narkomed Standard anesthesia system (North American Drager, Telford, Pa.). An Abbocath-T™ i.v. catheter (18-G, Abbott) was inserted into the cephalic vein for the administration of agonists. A telemetry receiver (RA1310, DataSciences) was placed under the head of each dog and was interfaced to a computerized data acquisition system (Modular Instruments Inc.(MI2), Malvern, Pa.) which allowed for the continuous calibrated recording of arterial blood pressure which was electronically filtered to determine its mean value (MAP).
(§3) From the resulting dose response curve, an ED5 value, for the dose causing a maximum increase in IUP of 5 mm Hg, could be estimated. An ED20 value for the dose causing a maximum increase in MAP of 20 mm Hg could also be estimated. A selectivity ratio of MAP ED20 vs. IUP ED, was calculated.

Data set [2] has as its target T1, α1d (rat receptor expressed in mouse fibroblasts) (Rattus norvegicus, UniProt P23944).
T1 construct: expressed in transfected cells; host or cells: mouse fibroblasts
T1 sequence (P23944 1-561): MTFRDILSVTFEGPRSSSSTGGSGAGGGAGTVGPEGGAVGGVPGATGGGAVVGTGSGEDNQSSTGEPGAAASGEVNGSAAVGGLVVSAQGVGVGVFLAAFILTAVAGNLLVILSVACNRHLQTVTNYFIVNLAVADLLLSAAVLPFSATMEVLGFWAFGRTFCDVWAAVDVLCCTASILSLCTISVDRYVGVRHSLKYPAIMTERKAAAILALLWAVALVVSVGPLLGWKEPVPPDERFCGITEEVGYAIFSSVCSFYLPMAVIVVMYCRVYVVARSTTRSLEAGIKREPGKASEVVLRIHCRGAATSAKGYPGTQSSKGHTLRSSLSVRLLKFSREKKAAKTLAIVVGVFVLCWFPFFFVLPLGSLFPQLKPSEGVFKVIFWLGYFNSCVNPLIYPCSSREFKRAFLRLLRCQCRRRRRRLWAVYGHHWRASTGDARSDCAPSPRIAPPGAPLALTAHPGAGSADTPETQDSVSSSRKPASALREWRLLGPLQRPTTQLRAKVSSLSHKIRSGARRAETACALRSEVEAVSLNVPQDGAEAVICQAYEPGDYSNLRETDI
The data set can be described thus: Radioligand binding, [3H]-prazosin, α1d. On the procedure: (§4) For purposes of discussing a, adrenoceptor subtypes, the IUPHAR convention of using lower case letters to define molecular clones and upper case letters to indicate pharmacologically defined adrenoceptors has been followed. Compounds of formula I were evaluated in radioligand binding assays specific for α1A (rat submaxillary gland), α1b (hamster receptor expressed in mouse fibroblasts) and α1d (rat receptor expressed in mouse fibroblasts) using [^3H]-prazosin as the radioligand as described in Knepper, et al. J. Pharm.

For data set [3], the target named is T2, α1A (rat submaxillary gland) (Rattus norvegicus, UniProt P43140).
T2 construct: α1A (rat submaxillary gland); from tissue; host or cells: rat submaxillary gland
T2 sequence (P43140 1-466): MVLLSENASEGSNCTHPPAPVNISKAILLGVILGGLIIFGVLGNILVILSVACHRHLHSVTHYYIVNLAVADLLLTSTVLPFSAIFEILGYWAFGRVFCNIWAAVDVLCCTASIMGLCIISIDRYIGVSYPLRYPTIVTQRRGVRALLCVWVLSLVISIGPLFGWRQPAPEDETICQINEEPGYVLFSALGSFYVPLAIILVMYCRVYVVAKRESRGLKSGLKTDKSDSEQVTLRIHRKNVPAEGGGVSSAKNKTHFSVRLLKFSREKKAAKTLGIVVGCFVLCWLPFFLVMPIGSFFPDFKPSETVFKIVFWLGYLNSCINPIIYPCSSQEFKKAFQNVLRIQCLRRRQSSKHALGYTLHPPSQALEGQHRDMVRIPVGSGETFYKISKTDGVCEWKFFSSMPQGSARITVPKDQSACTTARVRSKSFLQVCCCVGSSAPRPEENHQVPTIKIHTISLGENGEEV
The data set can be described thus: Radioligand binding, [3H]-prazosin, α1A. On the procedure: as §4

In data set [4] the target is T3, α1b (hamster receptor expressed in mouse fibroblasts) (Mesocricetus auratus, UniProt P18841).
T3 construct: expressed in transfected cells; host or cells: mouse fibroblasts
T3 sequence (P18841 1-515): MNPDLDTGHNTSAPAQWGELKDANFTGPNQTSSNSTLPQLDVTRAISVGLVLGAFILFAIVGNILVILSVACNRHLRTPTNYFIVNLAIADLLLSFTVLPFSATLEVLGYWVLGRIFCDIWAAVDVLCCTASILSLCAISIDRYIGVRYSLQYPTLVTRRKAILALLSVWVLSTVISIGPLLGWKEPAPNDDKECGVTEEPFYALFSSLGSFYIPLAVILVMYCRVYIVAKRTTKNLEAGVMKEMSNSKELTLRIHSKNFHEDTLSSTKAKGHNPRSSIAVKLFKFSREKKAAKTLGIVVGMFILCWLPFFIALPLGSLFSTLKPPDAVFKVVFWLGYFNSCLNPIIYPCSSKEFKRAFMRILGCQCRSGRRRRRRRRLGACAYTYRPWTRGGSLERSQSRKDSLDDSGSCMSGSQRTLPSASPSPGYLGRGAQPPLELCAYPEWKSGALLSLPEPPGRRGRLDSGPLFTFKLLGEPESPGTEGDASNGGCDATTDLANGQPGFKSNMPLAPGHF
The data set is described as follows: Radioligand binding, [3H]-prazosin, α1b. On the procedure:
as §4

Data set [5] has as its system anesthetized dogs. The data set can be described thus: Intraurethral pressure (IUP) in anesthetized dogs. In kind it is in vivo, dog. To be noted: iv dose causing a maximum increase in IUP of 5 mm Hg, anesthetized female Beagle dogs.
Description: as §1, §2
Dogs with chronic telemetry implants anesthetized as described above were placed in dorsal recumbency and a balloon catheter was inserted into the urethral orifice and advanced approximately 15 cm until the tip was well inside the bladder. The balloon was then inflated with 1 ml of room air and the catheter slowly withdrawn until resistance (corresponding to the bladder neck) was evident. The balloon was then deflated and the catheter withdrawn additional 2 cm. The balloon was then reinflated and its catheter port connected to a Gould Statham P23Dd pressure transducer interfaced to a computerized data acquisition system (Modular Instruments, Inc., Malvern, Pa.) for the measurement of the intraurethral pressure. Increasing iv doses of test agonists were administered and the maximum effect of each dose on IUP was recorded. The effect of each dose was allowed to return to baseline before the next dose was given.
as §3

The mark [6] stands for this setting: rat receptor expressed in mouse fibroblasts, [3H]-prazosin, read-out: Radioligand Binding Ki α1d (Rat).
The mark [7] stands for this setting: hamster receptor expressed in mouse fibroblasts, [3H]-prazosin, read-out: Radioligand Binding Ki α1b (Hamster).

Where a name gives a salt, the structure may show the parent alone. Read-outs that look alike come from different tables or passages of the source. A value given as a limit tells only on which side of the number the result lay.

The term melting point denotes the temperature, or range, at which the solid turns liquid. For the compound `CC(=O)Nc1cccc2c1CCCC2c1c[nH]cn1.O=C(O)/C=C\C(=O)O` (stereo not shown) [Example 16, N-[5,6,7,8-tetrahydro-5-(1H-imidazol-4-yl)-1-naphthalenyl]acetamide, Maleate], the melting point was in the range of 159 to 160 °C. Moreover, the “Mean MAP ED20” value in data set [1] turned out to be 220 nmol/kg.

As usually defined, the Ki is the dissociation constant of the complex between target and ligand, obtained from inhibition or displacement. As to `CCS(=O)(=O)Nc1cccc2c1COC2c1c[nH]cn1.O=C(O)/C=C\C(=O)O` (stereo not shown) [Example 87, N-[1-(1H-imidazol-4-yl)-1,3-dihydro-2-benzofuran-4-yl]ethanesulfonamide Maleate], the melting point was in the range of 95 to 98 °C. This compound came in with a Ki in data set [2] of 10 µM. This compound registered a Ki in data set [3] of 936 nM. The same compound returned a Ki in data set [4] of 10 µM.

Consider `CCS(=O)(=O)Nc1cccc2c1CCCC2c1c[nH]cn1.O=C(O)/C=C\C(=O)O` (single isomer, unassigned; (+)) [Example 33, (+)-N-[5-(1H-imidazol-4-yl)-5,6,7,8-tetrahydro-1-naphthalenyl]ethanesulfonamide, Maleate], for which, in data set [1] (Maleate), the “Mean MAP ED20” value is listed as 34.0 nmol/kg.

For the compound `CCS(=O)(=O)Nc1cc(C2CCCCC2)cc2c1CCCC2c1c[nH]cn1` (stereo not shown) [Example 101, N-[3-cyclohexyl-5-(1H-imidazol-4-yl)-5,6,7,8-tetrahydro-1-naphthalenyl]ethanesulfonamide], the melting point is 207 to 209 °C. The affinity in data set [2] corresponds to a Ki of 0.449 µM. For the same compound, in data set [3], the Ki came to 269 nM. The Ki in data set [4] is 0.886 µM.

`Cl.Cn1cnc(C2CCCc3c(NS(C)(=O)=O)cccc32)c1` (stereo not shown) [Example 14, N-[5,6,7,8-tetrahydro-5-(1-methyl-1H-imidazol-4-yl)-1-naphthalenyl]methanesulfonamide, Hydrochloride] displayed a melting point of 130 to 135 °C. The “Mean MAP ED20” value in data set [1] is reported as over 1000 nmol/kg.

For `COc1ccc(NS(C)(=O)=O)c2c1C(c1c[nH]cn1)CCC2` (stereo not shown) [Example 26, N-[5,6,7,8-tetrahydro-(1H-imidazol-4-yl)-4-methoxy-1-naphthalenyl]methanesulfonamide, Maleate], the Ki in data set [2] (setting [6]) and in data set [4] (setting [7]) was 10 µM in each case. Also, in data set [5], the “Mean IUP ED5” value was found to be 653 nmol/kg.

For `CCS(=O)(=O)Nc1cccc2c1CCC2c1c[nH]cn1.O=C(O)/C=C\C(=O)O` (stereo not shown) [Example 39, N-[1-(1H-imidazol-4-yl)-2,3-dihydro-1H-inden-4-yl]ethanesulfonamide, Maleate], the melting point is 148 to 149 °C. Moreover, the “Mean MAP ED20” value in data set [1] came out at 5.6 nmol/kg.

The compound `CN(C)S(=O)(=O)Nc1cccc2c1CCCC2c1c[nH]cn1` (stereo not shown) [Example 111, N′-[5-(1H-imidazol-4-yl)-5,6,7,8-tetrahydro-1-naphthalenvyl]-N,N-dimethylsulfamide] displayed a melting point of 208 to 210 °C. The Ki in data set [2] (setting [6]) turned out to be 1.59 µM. Moreover, the Ki in data set [3] amounted to 579 nM. Also, in data set [4] (setting [7]), the Ki was determined as 10 µM.

Regarding `CCS(=O)(=O)Nc1cccc2c1CCCC2c1c[nH]c(C)n1.O=C(O)/C=C\C(=O)O` (stereo not shown) [Example 84, N-[5-(2-methyl-1H-imidazol-4-yl)-5,6,7,8-tetrahydro-1-naphthalenyl]ethanesulfonamide, Maleate], the melting point was 73 to 77 °C. Further, in data set [2] (setting [6]), the Ki was found to be 10 µM. The same compound showed a Ki in data set [3] of 792 nM. In addition, the Ki in data set [4] (setting [7]) is 10 µM.

As to `CCS(=O)(=O)Nc1cccc2c1SCCC2c1c[nH]cn1.O=C(O)/C=C\C(=O)O` (stereo not shown) [Example 89, N-[4-(1H-imidazol-4-yl)-3,4-dihydro-2H-thiochromen-8-yl]ethanesulfonamide Maleate], the melting point lay within 248 to 251 °C. The Ki in data set [2] (setting [6]) worked out at 10 µM. The compound further displayed a Ki in data set [3] of 1010 nM. Further, the Ki in data set [4] (setting [7]) was 10 µM.

The compound `C=C(c1cccc(NS(=O)(=O)CC(F)(F)F)c1)c1c[nH]cn1.O=C(O)/C=C\C(=O)O` [Example 91, 2,2,2-trifluoro-N-{3-[1-(1H-imidazol-4-yl)vinyl]phenyl}ethanesulfonamide Maleate] yielded a melting point of 149 to 153 °C. In data set [2], this compound returned a Ki of 10 µM. The same compound gave a Ki in data set [3] of 1520 nM. Moreover, the affinity in data set [4], expressed as Ki, was 10 µM.

On to `CC(C)(OC(=O)Nc1cccc2c1CCCC2c1c[nH]cn1)C(Cl)(Cl)Cl` (stereo not shown) [Example 122, 2,2,2-trichloro-1-dimethylethyl 5-(1H-imidazol-4-yl)-5,6,7,8-tetrahydro-1-naphthalenylcarbamate], for which the Ki in data set [2] came to 1.27 µM; in data set [3], 1030 nM; in data set [4] it was 10 µM.

In turn, `CCS(=O)(=O)Nc1cccc(C(=C(C)C)c2c[nH]cn2)c1` [Example 94, N-{3-[1-(1H-imidazol-4-yl)-2-methyl-1-propenyl]phenyl}ethanesulfonamide] registered a melting point of 152 to 155 °C. Further, the Ki in data set [2] (setting [6]) is 0.173 µM. The compound also displayed a Ki in data set [3] of 1940 nM. The Ki in data set [4] (setting [7]) was 1.18 µM.

Take `CS(=O)(=O)Nc1cccc2c1OCCC2c1c[nH]cn1.O=C(O)/C=C\C(=O)O` (single isomer, unassigned; (+)) [Example 93, (+) N-[4-(1H-imidazol-4-yl)-3,4-dihydro-2H-chromen-8-yl]methanesulfonamide Maleate]: the melting point is 205 to 208 °C. Besides, the ED (5 mm Hg) in data set [5] (Canis lupus familiaris, read-out: Mean IUP ED5) is 0.038 µmol/kg.

The values are drawn from US20030073850A1, “4-Imidazole derivatives of benzyl and restricted benzyl sulfonamides, sulfamides, ureas, carbamates, and amides and their use” (priority 1998, published 2003).
